Target: T1, EZH2 protein in LS174T cells (Homo sapiens, UniProt Q15910)
T1 construct: endogenous in cells; host or cells: LS174T
Assay: Proteolytic effect in colorectal cancer cells (Western blotting)
Type: cell-based
Conditions: for Grade (percent value of the protein degradation when treated with 1 μM) / %, degradation at 1 uM: EZH2 protein, 72 hours; for %, degradation at 1 uM: Western blotting
Method: After 72 hours of the treatment, the cells were collected and lysed using RIPA buffer (50 mM Tris, pH 7.5, 150 mM NaCl, 1% Triton X-100, 0.1% SDS, […], 0.5% deoxycholate, and protease inhibitor cocktail), followed by sonication (30 sec on/30 sec off, 5 cycles) to prepare a cell lysate.

T1 sequence (Q15910 whole entry): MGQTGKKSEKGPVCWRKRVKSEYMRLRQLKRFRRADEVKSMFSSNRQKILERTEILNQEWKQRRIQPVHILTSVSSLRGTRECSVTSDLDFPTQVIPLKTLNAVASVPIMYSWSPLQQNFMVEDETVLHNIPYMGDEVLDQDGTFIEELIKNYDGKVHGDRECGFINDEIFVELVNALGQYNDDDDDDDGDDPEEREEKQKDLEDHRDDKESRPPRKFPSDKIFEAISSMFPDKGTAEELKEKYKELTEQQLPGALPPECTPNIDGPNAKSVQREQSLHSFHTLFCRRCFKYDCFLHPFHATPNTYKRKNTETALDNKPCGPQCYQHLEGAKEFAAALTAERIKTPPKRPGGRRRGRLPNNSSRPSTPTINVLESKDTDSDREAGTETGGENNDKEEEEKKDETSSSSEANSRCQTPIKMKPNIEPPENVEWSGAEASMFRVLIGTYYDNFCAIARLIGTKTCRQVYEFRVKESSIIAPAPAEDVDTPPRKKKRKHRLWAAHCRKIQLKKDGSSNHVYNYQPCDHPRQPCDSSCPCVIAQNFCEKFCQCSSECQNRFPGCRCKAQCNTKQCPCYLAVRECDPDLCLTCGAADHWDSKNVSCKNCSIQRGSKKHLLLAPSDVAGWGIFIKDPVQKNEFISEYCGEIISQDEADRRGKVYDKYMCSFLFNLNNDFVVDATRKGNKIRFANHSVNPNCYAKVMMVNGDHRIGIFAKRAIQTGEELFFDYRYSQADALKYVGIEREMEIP
T1 sequence (O75530 whole entry partner): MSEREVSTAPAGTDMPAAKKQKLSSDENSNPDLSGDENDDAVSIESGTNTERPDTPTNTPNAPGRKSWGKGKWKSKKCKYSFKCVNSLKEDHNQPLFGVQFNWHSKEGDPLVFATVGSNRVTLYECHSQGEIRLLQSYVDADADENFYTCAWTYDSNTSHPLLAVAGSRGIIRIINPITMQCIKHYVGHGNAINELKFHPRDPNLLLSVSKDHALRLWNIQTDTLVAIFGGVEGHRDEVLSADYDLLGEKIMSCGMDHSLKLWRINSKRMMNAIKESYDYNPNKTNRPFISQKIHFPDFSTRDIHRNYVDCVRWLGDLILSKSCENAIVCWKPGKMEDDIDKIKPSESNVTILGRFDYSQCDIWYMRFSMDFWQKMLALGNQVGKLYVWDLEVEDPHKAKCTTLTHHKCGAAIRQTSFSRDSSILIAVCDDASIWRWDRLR
T1 sequence (Q15022 whole entry partner): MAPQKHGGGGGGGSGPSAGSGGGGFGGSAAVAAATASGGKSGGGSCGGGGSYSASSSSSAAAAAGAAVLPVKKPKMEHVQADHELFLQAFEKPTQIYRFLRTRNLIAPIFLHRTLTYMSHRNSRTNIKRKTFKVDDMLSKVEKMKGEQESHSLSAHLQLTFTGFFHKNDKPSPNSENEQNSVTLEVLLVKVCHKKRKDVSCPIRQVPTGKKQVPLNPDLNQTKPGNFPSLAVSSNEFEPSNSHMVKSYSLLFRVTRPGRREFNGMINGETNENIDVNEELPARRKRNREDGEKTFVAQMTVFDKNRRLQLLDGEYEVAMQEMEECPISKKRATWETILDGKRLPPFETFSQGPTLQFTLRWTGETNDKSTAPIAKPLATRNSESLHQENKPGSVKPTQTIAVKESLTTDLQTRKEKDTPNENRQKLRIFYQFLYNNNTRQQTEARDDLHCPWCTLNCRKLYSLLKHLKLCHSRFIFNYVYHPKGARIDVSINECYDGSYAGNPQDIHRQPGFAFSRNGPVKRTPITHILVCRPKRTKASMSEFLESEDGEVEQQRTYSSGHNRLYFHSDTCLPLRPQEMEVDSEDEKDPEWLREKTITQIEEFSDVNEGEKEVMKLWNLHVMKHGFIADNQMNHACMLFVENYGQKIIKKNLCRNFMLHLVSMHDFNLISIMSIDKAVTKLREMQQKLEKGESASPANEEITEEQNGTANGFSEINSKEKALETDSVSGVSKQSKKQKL

SMILES | Grade (percent value of the protein degradation when treated with 1 μM) (LS174T cells) | %, degradation at 1 uM (LS174T cells) [%] | EZH2 proteolytic effect by Western blotting (figure, in words) (FIGS. 1 to 5) | effect of degrading EZH2 protein when treated to colorectal cancer cells (in words) (LS174T cells)
CCN(c1cc(-c2ccc(CN3CCN(C(=O)c4cn(CCCNc5cccc6c5C(=O)N(C5CCC(=O)NC5=O)C6=O)nn4)CC3)cc2)cc(C(=O)NCc2c(C)cc(C)[nH]c2=O)c1C)C1CCOCC1 (stereo not shown) [Example 25, N-((4,6-dimethyl-2-oxo-1,2-dihydropyridine-3-yl)methyl)-4′-((4-(1-(3-((2-(2,6-dioxopiperidine-3-yl)-1,3-dioxoisoindoline-4-yl)amino)propyl)-1H-1,2,3-triazole-4-carbonyl)piperazine-1-yl)methyl)-5-(ethyl(tetrahydro-2H-pyran-4-yl)amino)-4-methyl[1,1′-biphenyl]-3-carboxamide] | D (<25%) | 7.41 |  | 
CCN(c1cc(-c2ccc(CN3CCN(CC(=O)NCCOCCCOc4cccc5c4C(=O)N(C4CCC(=O)NC4=O)C5=O)CC3)cc2)cc(C(=O)NCc2c(C)cc(C)[nH]c2=O)c1C)C1CCOCC1 (stereo not shown) [Example 18, N-((4,6-dimethyl-2-oxo-1,2-dihydropyridine-3-yl)methyl)-4′-((4-(2-((2-(3-((2-(2,6-dioxopiperidine-3-yl)-1,3-dioxoisoindoline-4-yl)oxy)propoxy)ethyl)amino)-2-oxoethyl)piperazine-1-yl)methyl)-5-(ethyl(tetrahydro-2H-pyran-4-yl)amino)-4-methyl-[1,1′-biphenyl]-3-carboxamide] | D (<25%) | 16.74 |  | 
CCN(c1cc(-c2ccc(CN3CCN(CC(=O)NCCCCCCNc4cccc5c4C(=O)N(C4CCC(=O)NC4=O)C5)CC3)cc2)cc(C(=O)NCc2c(C)cc(C)[nH]c2=O)c1C)C1CCOCC1 (stereo not shown) [Example 22, N-((4,6-dimethyl-2-oxo-1,2-dihydropyridine-3-yl)methyl)-4′-((4-(2-((6-((2-(2,6-dioxopiperidine-3-yl)-3-oxoisoindoline-4-yl)amino)hexyl)amino)-2-oxoethyl)piperazine-1-yl)methyl)-5-(ethyl(tetrahydro-2H-pyran-4-yl)amino)-4-methyl-[1,1′-biphenyl]-3-carboxamide] | D (<25%) | 0 |  | 
CCN(c1cc(-c2ccc(CN3CCN(CCOCCCCCCNc4cccc5c4C(=O)N(C4CCC(=O)NC4=O)C5=O)CC3)cc2)cc(C(=O)NCc2c(C)cc(C)[nH]c2=O)c1C)C1CCOCC1 (stereo not shown) [Example 19, N-((4,6-dimethyl-2-oxo-1,2-dihydropyridine-3-yl)methyl)-4′-((4-(2-((6-((2-(2,6-dioxopiperidine-3-yl)-1,3-dioxoisoindoline-4-yl)amino)hexyl)oxy)ethyl)piperazine-1-yl)methyl)-5-(ethyl(tetrahydro-2H-pyran-4-yl)amino)-4-methyl-[1,1′-biphenyl]-3-carboxamide] | D (<25%) | 9.07 |  | 
CCN(c1cc(-c2ccc(CN3CCN(CC(=O)NCCCCNc4cccc5c4C(=O)N(C4CCC(=O)NC4=O)C5=O)CC3)cc2)cc(C(=O)NCc2c(C)cc(C)[nH]c2=O)c1C)C1CCOCC1 (stereo not shown) [Example 3, N-((4,6-dimethyl-2-oxo-1,2-dihydropyridine-3-yl)methyl)-4′-((4-(2-((4-((2-(2,6-dioxopiperidine-3-yl)-1,3-dioxoisoindoline-4-yl)amino)butyl)amino)-2-oxoethyl)piperazine-1-yl)methyl)-5-(ethyl(tetrahydro-2H-pyran-4-yl)amino)-4-methyl-[1,1′-biphenyl]-3-carboxamide] | D (<25%) | 13.61 |  | 
CCN(c1cc(-c2ccc(CN3CCN(C(=O)CNCCNc4cccc5c4C(=O)N(C4CCC(=O)NC4=O)C5=O)CC3)cc2)cc(C(=O)NCc2c(C)cc(C)[nH]c2=O)c1C)C1CCOCC1 (stereo not shown) [Example 12, N-((4,6-dimethyl-2-oxo-1,2-dihydropyridine-3-yl)methyl)-4′-((4-((2-((2-(2,6-dioxopiperidine-3-yl)-1,3-dioxoisoindoline-4-yl)amino)ethyl)glycyl)piperazine-1-yl)methyl)-5-(ethyl(tetrahydro-2H-pyran-4-yl)amino)-4-methyl-[1,1′-biphenyl]-3-carboxamide] | D (<25%) | 16.89 |  | 
CCN(c1cc(-c2ccc(CN3CCN(CC(=O)NCCCCCCN[C@H](C(=O)N4C[C@H](O)C[C@H]4C(=O)NCc4ccc(-c5scnc5C)cc4)C(C)(C)C)CC3)cc2)cc(C(=O)NCc2c(C)cc(C)[nH]c2=O)c1C)C1CCOCC1 [Example 38, (2S,4R)-1-((S)-2-((6-(2-(4-((3′-(((4,6-dimethyl-2-oxo-1,2-dihydropyridine-3-yl)methyl)carbamoyl)-5′-(ethyl(tetrahydro-2H-pyran-4-yl)amino)-4′-methyl-[1,1′-biphenyl]-4-yl)methyl)piperazine-1-yl)acetamido)hexyl)amino)-3,3-dimethylbutanoyl)-4-hydroxy-N-(4-(4-methylthiazole-5-yl)benzyl)pyrrolidine-2-carboxamide] | D (<25%) | 9.97 |  | 
CCN(c1cc(-c2ccc(CN3CCN(C(=O)c4cn(CCCCCNc5cccc6c5C(=O)N(C5CCC(=O)NC5=O)C6=O)nn4)CC3)cc2)cc(C(=O)NCc2c(C)cc(C)[nH]c2=O)c1C)C1CCOCC1 (stereo not shown) [Example 32, N-((4,6-dimethyl-2-oxo-1,2-dihydropyridine-3-yl)methyl)-4′-((4-(1-(5-((2-(2,6-dioxopiperidine-3-yl)-1,3-dioxoisoindoline-4-yl)amino)pentyl)-1H-1,2,3-triazole-4-carbonyl)piperazine-1-yl)methyl)-5-(ethyl(tetrahydro-2H-pyran-4-yl)amino)-4-methyl-[1,1′-biphenyl]-3-carboxamide] | C (25-50%) | 31.67 |  | 
CCN(c1cc(-c2ccc(CN3CCN(CC(=O)NCCCCCOCCCOCC(=O)Nc4cccc5c4C(=O)N(C4CCC(=O)NC4=O)C5=O)CC3)cc2)cc(C(=O)NCc2c(C)cc(C)[nH]c2=O)c1C)C1CCOCC1 (stereo not shown) [Example 28, N-((4,6-dimethyl-2-oxo-1,2-dihydropyridine-3-yl)methyl)-4′-((4-(2-((5-(3-(2-((2-(2,6-dioxopiperidine-3-yl)-1,3-dioxoisoindoline-4-yl)amino)-2-oxoethoxy)propoxy)pentyl)amino)-2-oxoethyl)piperazine-1-yl)methyl)-5-(ethyl(tetrahydro-2H-pyran-4-yl)amino)-4-methyl-[1,1′-biphenyl]-3-carboxamide] | D (<25%) | 0 |  | 
CCN(c1cc(-c2ccc(CN3CCN(CC(=O)NCCOCCOCCOCCC(=O)NCCNc4cccc5c4C(=O)N(C4CCC(=O)NC4=O)C5=O)CC3)cc2)cc(C(=O)NCc2c(C)cc(C)[nH]c2=O)c1C)C1CCOCC1 (stereo not shown) [Example 4, N-((4,6-dimethyl-2-oxo-1,2-dihydropyridine-3-yl)methyl)-4′-((4-(18-((2-(2,6-dioxopiperidine-3-yl)-1,3-dioxoisoindoline-4-yl)amino)-2,15-dioxo-6,9,12-trioxa-3,16-diazaoctadecyl)piperazine-1-yl)methyl)-5-(ethyl(tetrahydro-2H-pyran-4-yl)amino)-4-methyl-[1,1′-biphenyl]-3-carboxamide] | D (<25%) | 0 |  | 
CCN(c1cc(-c2ccc(CN3CCN(CCNCCCCCCNc4cccc5c4C(=O)N(C4CCC(=O)NC4=O)C5=O)CC3)cc2)cc(C(=O)NCc2c(C)cc(C)[nH]c2=O)c1C)C1CCOCC1 (stereo not shown) [Example 21, N-((4,6-dimethyl-2-oxo-1,2-dihydropyridine-3-yl)methyl)-4′-((4-(2-((6-((2-(2,6-dioxopiperidine-3-yl)-1,3-dioxoisoindoline-4-yl)amino)hexyl)amino)ethyl)piperazine-1-yl)methyl)-5-(ethyl(tetrahydro-2H-pyran-4-yl)amino)-4-methyl-[1,1′-biphenyl]-3-carboxamide] | A (>75%) | 83.09 | confirming the EZH2 proteolytic effect | excellent effects
CCN(c1cc(-c2ccc(CN3CCN(Cc4cn(CCCNc5cccc6c5C(=O)N(C5CCC(=O)NC5=O)C6=O)nn4)CC3)cc2)cc(C(=O)NCc2c(C)cc(C)[nH]c2=O)c1C)C1CCOCC1 (stereo not shown) [Example 23, N-((4,6-dimethyl-2-oxo-1,2-dihydropyridine-3-yl)methyl)-4′-((4-((1-(3-((2-(2,6-dioxopiperidine-3-yl)-1,3-dioxoisoindoline-4-yl)amino)propyl)-1H-1,2,3-triazole-4-yl)methyl)piperazine-1-yl)methyl)-5-(ethyl(tetrahydro-2H-pyran-4-yl)amino)-4-methyl-[1,1′-biphenyl]-3-carboxamide] | D (<25%) | 1.52 |  | 
CCN(c1cc(-c2ccc(CN3CCN(CC(=O)NCCOCCCN[C@H](C(=O)N4C[C@H](O)C[C@H]4C(=O)NCc4ccc(-c5scnc5C)cc4)C(C)(C)C)CC3)cc2)cc(C(=O)NCc2c(C)cc(C)[nH]c2=O)c1C)C1CCOCC1 [Example 40, (2S,4R)-1-((S)-2-((3-(2-(2-(4-((3′-(((4,6-dimethyl-2-oxo-1,2-dihydropyridine-3-yl)methyl)carbamoyl)-5′-(ethyl(tetrahydro-2H-pyran-4-yl)amino)-4′-methyl-[1,1′-biphenyl]-4-yl)methyl)piperazine-1-yl)acetamido)ethoxy)propyl)amino)-3,3-dimethylbutanoyl)-4-hydroxy-N-(4-(4-methylthiazole-5-yl)benzyl)pyrrolidine-2-carboxamide] | D (<25%) | 0 |  | 
